According to patent US10829520B2, “Beta-hairpin peptidomimetics” (POLYPHOR AG, priority 2015, dated 2020):
Where a SMILES comes first, the peptide text is derived from it. Bridges are numbered along the chain shown (N, C = ends). Roman numbers before positions name the chains, in order. [ ]: non-standard residue; d: D form. Tle = CC(C)(C)[C@H](N)C(=O)O; dDab = NCC[C@@H](N)C(=O)O; Nle = CCCC[C@H](N)C(=O)O; Orn = NCCC[C@H](N)C(=O)O; Dab = NCC[C@H](N)C(=O)O

Columns and labels:
Type in all cases: cell-based
[1] = tested on: human red blood cells (hRBC); test: Hemolysis of human red blood cells; details: red cells of human, 1 h
Outline: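 Peptides at 100 μg/mL were incubated with PBS-washed fresh human erythrocytes (20% v/v, ~0.9×10^9 cells/mL final) for 1 h at 37° C. with shaking. Supernatant OD540 was read after 8-fold dilution; percent hemolysis was expressed relative to the 2.5% Triton X-100 full-lysis control, with PBS/0.001% acetic acid as 0%.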

[2] = tested on: Acinetobacter baumannii 872842; details: 872842
Escherichia coli 926415 = details: 926415
[3] = tested on: Klebsiella pneumoniae SSI #3010; details: SSI #3010
Outline: (§1)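 Inocula standardised to a 0.5 McFarland reference and diluted to about 10^6 CFU/mL in MH-II broth are incubated with two-fold peptide series containing 0.002% polysorbate 80. No visible growth after 18-20 hours at 35° C defines the MIC, in μg/mL.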

[4] = tested on: Acinetobacter baumannii DSM 30008; details: DSM 30008
Outline: as §1

[5] = tested on: Escherichia coli ATCC 25922; details: ATCC 25922
Outline: as §1

[6] = tested on: Pseudomonas aeruginosa ATCC 27853; details: ATCC 27853
Outline: as §1

[7] = tested on: Klebsiella pneumoniae 968733; details: 968733

| Compound | Hemolysis at 100 μg/mL [1]; 100 | Acinetobacter baumannii 872842 MIC [2] | Escherichia coli 926415 MIC (Escherichia coli 926415) | Klebsiella pneumoniae SSI #3010 MIC [3] | Acinetobacter baumannii DSM 30008 MIC [4] | Escherichia coli ATCC 25922 MIC [5] | Pseudomonas aeruginosa ATCC 27853 MIC [6] | Klebsiella pneumoniae 968733 MIC [7] | Hemolysis at 100 μg/mL ([1]; 100 μg/mL) |
| --- | --- | --- | --- | --- | --- | --- | --- | --- | --- |
| CCCC[C@@H]1NC(=O)[C@@H]2CCCN2C(=O)[C@H]2CCCN2C(=O)[C@H](CO)NC(=O)[C@H](C)NC(=O)[C@H](C(C)(C)C)NC(=O)[C@H](CCN)NC(=O)[C@H](Cc2c[nH]c3ccccc23)NC(=O)[C@@H](NC(C)=O)CCNC(=O)CC[C@@H](C(=O)N[C@@H](CCN)C(=O)N[C@H]2CCNC(=O)[C@H]([C@@H](C)O)NC(=O)[C@H](CCN)NC(=O)[C@H](CCN)NC(=O)[C@H](CC(C)C)NC(=O)[C@@H](Cc3ccccc3)NC(=O)[C@H](CCN)NC2=O)NC(=O)[C@H](CCCN)NC(=O)[C@H](CCN)NC(=O)[C@H](Cc2ccc(O)cc2)NC(=O)[C@H](CO)NC1=O [Ex. 59] (Ac-[Dab]W[Dab][Tle]AS[dP]P[Nle]SY[Dab][Orn]E[Dab][Dab][Dab][dF]L[Dab][Dab]T; lactam 1-14, 16-C) | <1% | 2 mg/L | 0.5 mg/L | 0.5 mg/L | 0.5 mg/L | 0.25 mg/L | 1 mg/L | 2 mg/L | – |
| CCCC[C@@H]1NC(=O)[C@@H]2CCCN2C(=O)[C@H]2CCCN2C(=O)[C@H](CO)NC(=O)[C@H](C)NC(=O)[C@H](C(C)(C)C)NC(=O)[C@H](CCN)NC(=O)[C@H](Cc2c[nH]c3ccccc23)NC(=O)[C@@H](NC(C)=O)CSSC[C@@H](C(=O)N[C@H](CCN)C(=O)N[C@H]2CCNC(=O)[C@H]([C@@H](C)O)NC(=O)[C@H](CCN)NC(=O)[C@H](CCN)NC(=O)[C@H](CC(C)C)NC(=O)[C@@H](Cc3ccccc3)NC(=O)[C@H](CCN)NC2=O)NC(=O)[C@H](CCCN)NC(=O)[C@H](CCN)NC(=O)[C@H](Cc2ccc(O)cc2)NC(=O)[C@H](CO)NC1=O [Ex. 60] (Ac-CW[Dab][Tle]AS[dP]P[Nle]SY[Dab][Orn]C[dDab][Dab][Dab][dF]L[Dab][Dab]T; disulfide 1-14; lactam 16-C) | – | 1 mg/L | 0.25 mg/L | 0.25 mg/L | 1 mg/L | 0.0625 mg/L | 0.5 mg/L | 1 mg/L | <1% |
| CCCC[C@@H]1NC(=O)[C@@H]2CCCN2C(=O)[C@H]2CCCN2C(=O)[C@H](CO)NC(=O)[C@H](C)NC(=O)[C@H](C(C)(C)C)NC(=O)[C@H](CCN)NC(=O)[C@H](Cc2c[nH]c3ccccc23)NC(=O)[C@@H](NC(C)=O)CSSC[C@@H](C(=O)N[C@@H](CCN)C(=O)N[C@@H](CCN)C(=O)N[C@H]2CCNC(=O)[C@H]([C@@H](C)O)NC(=O)[C@H](CCN)NC(=O)[C@H](CCN)NC(=O)[C@H](CC(C)C)NC(=O)[C@@H](Cc3ccccc3)NC(=O)[C@H](CCN)NC2=O)NC(=O)[C@H](CCCN)NC(=O)[C@H](CCN)NC(=O)[C@H](Cc2ccc(O)cc2)NC(=O)[C@H](CO)NC1=O [Ex. 61] (Ac-CW[Dab][Tle]AS[dP]P[Nle]SY[Dab][Orn]C[Dab][Dab][Dab][Dab][dF]L[Dab][Dab]T; disulfide 1-14; lactam 17-C) | – | 1 mg/L | 2 mg/L | 1 mg/L | 1 mg/L | 0.5 mg/L | 0.25 mg/L | 8 mg/L | <1% |
| CCCC[C@@H]1NC(=O)[C@@H]2CCCN2C(=O)[C@H]2CCCN2C(=O)[C@H](CO)NC(=O)[C@H](C)NC(=O)[C@H](C(C)(C)C)NC(=O)[C@H](CCN)NC(=O)[C@H](Cc2c[nH]c3ccccc23)NC(=O)[C@@H](NC(C)=O)CSSC[C@@H](C(=O)N[C@@H](CCN)C(=O)N[C@H](C(=O)N[C@@H](CCN)C(=O)N[C@H]2CCNC(=O)[C@H]([C@@H](C)O)NC(=O)[C@H](CCN)NC(=O)[C@H](CCN)NC(=O)[C@H](CC(C)C)NC(=O)[C@@H](Cc3ccccc3)NC(=O)[C@H](CCN)NC2=O)[C@@H](C)O)NC(=O)[C@H](CCCN)NC(=O)[C@H](CCN)NC(=O)[C@H](Cc2ccc(O)cc2)NC(=O)[C@H](CO)NC1=O [Ex. 62] (Ac-CW[Dab][Tle]AS[dP]P[Nle]SY[Dab][Orn]C[Dab]T[Dab][Dab][Dab][dF]L[Dab][Dab]T; disulfide 1-14; lactam 18-C) | – | 0.5 mg/L | 1 mg/L | 0.5 mg/L | 0.5 mg/L | 0.25 mg/L | 0.5 mg/L | 8 mg/L | 1% |
| CCCC[C@@H]1NC(=O)[C@@H]2CCCN2C(=O)[C@H]2CCCN2C(=O)[C@H](CO)NC(=O)[C@H](C)NC(=O)[C@H](C(C)(C)C)NC(=O)[C@H](CCN)NC(=O)[C@H](Cc2c[nH]c3ccccc23)NC(=O)[C@H](NC(C)=O)CSSC[C@@H](C(=O)N[C@@H](CCN)C(=O)N[C@H](C(=O)N[C@@H](CCN)C(=O)N[C@H]2CCNC(=O)[C@H]([C@@H](C)O)NC(=O)[C@H](CCN)NC(=O)[C@H](CCN)NC(=O)[C@H](CC(C)C)NC(=O)[C@@H](Cc3ccccc3)NC(=O)[C@H](CCN)NC2=O)[C@@H](C)O)NC(=O)[C@H](CCCN)NC(=O)[C@H](CCN)NC(=O)[C@H](Cc2ccc(O)cc2)NC(=O)[C@H](CO)NC1=O [Ex. 63] (Ac-[dC]W[Dab][Tle]AS[dP]P[Nle]SY[Dab][Orn]C[Dab]T[Dab][Dab][Dab][dF]L[Dab][Dab]T; disulfide 1-14; lactam 18-C) | – | 2 mg/L | 3 mg/L | 2 mg/L | 2 mg/L | 0.5 mg/L | 0.5 mg/L | 8 mg/L | <1% |
| CCCC[C@@H]1NC(=O)[C@@H]2CCCN2C(=O)[C@H]2CCCN2C(=O)[C@H](CO)NC(=O)[C@H](C)NC(=O)[C@H](C(C)(C)C)NC(=O)[C@H](CCN)NC(=O)[C@H](Cc2c[nH]c3ccccc23)NC(=O)[C@H](CCN)NC(=O)[C@@H](CCN)NC(=O)[C@H](CCC(=O)N[C@H](CCN)C(=O)N[C@H]2CCNC(=O)[C@H]([C@@H](C)O)NC(=O)[C@H](CCN)NC(=O)[C@H](CCN)NC(=O)[C@H](CC(C)C)NC(=O)[C@@H](Cc3ccccc3)NC(=O)[C@H](CCN)NC2=O)NC(=O)[C@H](CCN)NC(=O)[C@H](Cc2ccc(O)cc2)NC(=O)[C@H](CO)NC1=O [Ex. 65] (I: cyclo([Nle]SY[Dab]E[dDab][Dab]W[Dab][Tle]AS[dP]P) / II: [dDab][Dab][Dab][dF]L[Dab][Dab]T; amide I:5-II:N; lactam II:2-II:C) | <1% | 4 mg/L | 1 mg/L | 1 mg/L | 2 mg/L | 1 mg/L | 1 mg/L | 2 mg/L | – |
